One assay addresses cABLT315 kinase (Homo sapiens, UniProt P00519). Kind of assay: cABLT315 kinase Caliper assay. It counts as biochemical. The method, then: PKCα and cABLT315 Kinase Caliper Assays
Assays were performed in 384 well microtiter plates. Each assay plate contained 8-point serial dilutions for test compounds, as well as two 16-point serial dilutions of staurosporine as reference compound, plus 16 high- and 16 low controls. Liquid handling and incubation steps were done on a Thermo CatX workstation equipped with a Innovadyne Nanodrop Express. Between pipetting steps, tips were cleaned in wash cycles using wash buffer. Plates with terminated kinase reactions were transferred to the Caliper LC3000 workstations for reading. Phosphorylated and unphosphorylated peptides were separated using the Caliper microfluidic mobilitishift technology and Kinase activities were calculated from the amounts of formed phospho-peptide.
Kinase reactions were prepared in 384 low volume plates by the following sequence:
1. 0.05 μA Compound (start with 1.8 mM in 90% DMSO/10% H2O)
2. +4.5 μl 2× peptide/ATP solution
3. +4.5 μl 2× enzyme solution
4. Incubate for 60 min at 30° C.
4. +16 μl stop/run buffer
Independent of the kinase, all reactions were done performed in 50 mM HEPES, pH 7.5, 1 mM DTT, 0.02% Tween20, 0.02% BSA, and 0.6% DMSO. For cABLT315 assay specific details were as follows: [cABLT315 kinase]=2.4 nM, [ATP]=10 uM, [peptide]=2 uM, [Mg]=10 mM. For PKCα, assay specific details were as follows: [kinase]=0.012 nM, [ATP]=17 uM, [peptide]=1 uM, [Mg]=7 mM, [Ca]=0.2 mM.

A further assay deals with T1, hERG (Homo sapiens, UniProt Q12809).
T1 construct: host or cells: crude membrane suspension
Description: hERG binding assay ([3H] dofetilide displacement). The settings on record: read-out: HERGdof IC50. An outline of the steps: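 Displacement of 2.5 nM [3H]dofetilide from crude hERG membranes (ca. 15 μg protein) by filtration binding, 90 min at room temperature, 0.5% DMSO final. Non-specific binding defined with 25 μM terfenadine; compounds run as 9-point duplicate curves from 30 μM to 3 nM.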

A further assay has as its target KDR kinase (Homo sapiens, UniProt P35968). Kind of assay: KDR kinase inhibition assay (LanthaScreen TR-FRET). The format is biochemical. On the procedure: KDR Kinase Inhibition Assay
(§1) LanthaScreen™ is the detection of Time-Resolved Fluorescence Resonance Energy Transfer (TR-FRET) using lanthanide chelates to measure interactions between various binding partners. The application of TR-FRET to assay kinase activity was first described by Mathis (1995). A TR-FRET assay was used to measure KDR kinase inhibitory activity. The assay panel was run on a Biomek FX liquid handling workstations. To the assay plates containing 50 nL compound or control solutions, 4.5 μL of buffer A (50 mM TRIS-HCl pH 7.4, 2 mM DTT, 0.02% Tween 20, 0.02 mM Na3VO4, H2O nanpure) including a generic concentration of ATP (2 μM f.c.) was added per well, followed by 4.5 μL of buffer B (4 uM ATP in Buffer A) including a generic concentration of polyEAY (50 nM f.c.), KDR kinase, and divalent cations. Final concentration of kinase and cations were: [KDR kinase]=0.38 nM, [Mg]=10 mM, [Ca]=1 mM. After 1 hour of incubation the kinase reactions were stopped by the addition of 4.5 μL of stop solution D (50 mM EDTA, 20 mM TRIS-HCl pH 7.4, 0.04% NP-40) immediately followed by 4.5 μL of buffer A (50 mM TRIS-HCl pH 7.4, 2 mM DTT, 0.02% Tween 20, 0.02 mM Na3VO4, H2O nanpure) including the Tb-labeled P-20 antibody to give a total detection volume of 18 μL. After an incubation time of 45 min in the dark, the plates were transferred into the Pherastar fluorescence reader for counting. The effect of compound on the enzymatic activity was obtained from the linear progress curves and determined from one reading (end point measurement).
(In general: TR-FRET usually uses a lanthanide donor and a delayed reading to cut background.)

For a further assay, the target named is FGFR3 kinase (Homo sapiens, UniProt P22607). Kind of assay: FGFR3 kinase inhibition assay (LanthaScreen TR-FRET). The format is biochemical. On the procedure: FGFR3 Kinase Inhibition Assay
as §1, with “FGFR3” for “KDR”, “[…]” for “nL”, “[FGFR3 kinase]=0.20” for “[KDR kinase]=0.38”, “[Mg]=3” for “[Mg]=10”, “[Mn]=3” for “[Ca]=1”

pIC50: −log10 of the molar value. Read-outs that look alike come from different tables or passages of the source.

Sequence of FGFR3 kinase (P22607 23-806): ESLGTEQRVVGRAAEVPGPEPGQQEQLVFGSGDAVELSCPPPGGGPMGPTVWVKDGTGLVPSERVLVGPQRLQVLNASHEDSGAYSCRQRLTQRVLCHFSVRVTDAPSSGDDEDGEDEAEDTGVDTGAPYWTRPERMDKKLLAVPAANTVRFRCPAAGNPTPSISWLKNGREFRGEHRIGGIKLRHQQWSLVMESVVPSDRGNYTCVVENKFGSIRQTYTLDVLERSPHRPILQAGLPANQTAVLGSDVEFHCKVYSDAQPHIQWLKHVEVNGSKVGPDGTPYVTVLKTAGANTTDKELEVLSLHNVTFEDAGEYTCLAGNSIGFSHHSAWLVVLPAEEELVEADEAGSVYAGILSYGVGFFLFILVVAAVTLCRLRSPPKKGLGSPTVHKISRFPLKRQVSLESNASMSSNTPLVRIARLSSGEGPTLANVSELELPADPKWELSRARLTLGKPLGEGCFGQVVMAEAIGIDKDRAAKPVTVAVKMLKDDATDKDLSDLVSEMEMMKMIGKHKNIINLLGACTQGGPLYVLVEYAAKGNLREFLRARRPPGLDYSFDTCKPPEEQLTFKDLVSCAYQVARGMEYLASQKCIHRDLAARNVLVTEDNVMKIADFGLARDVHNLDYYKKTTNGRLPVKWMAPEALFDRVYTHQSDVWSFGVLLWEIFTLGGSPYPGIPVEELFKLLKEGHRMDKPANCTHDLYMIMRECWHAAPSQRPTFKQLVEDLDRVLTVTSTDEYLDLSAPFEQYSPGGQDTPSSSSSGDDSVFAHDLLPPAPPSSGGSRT
T1 sequence (Q12809 whole entry): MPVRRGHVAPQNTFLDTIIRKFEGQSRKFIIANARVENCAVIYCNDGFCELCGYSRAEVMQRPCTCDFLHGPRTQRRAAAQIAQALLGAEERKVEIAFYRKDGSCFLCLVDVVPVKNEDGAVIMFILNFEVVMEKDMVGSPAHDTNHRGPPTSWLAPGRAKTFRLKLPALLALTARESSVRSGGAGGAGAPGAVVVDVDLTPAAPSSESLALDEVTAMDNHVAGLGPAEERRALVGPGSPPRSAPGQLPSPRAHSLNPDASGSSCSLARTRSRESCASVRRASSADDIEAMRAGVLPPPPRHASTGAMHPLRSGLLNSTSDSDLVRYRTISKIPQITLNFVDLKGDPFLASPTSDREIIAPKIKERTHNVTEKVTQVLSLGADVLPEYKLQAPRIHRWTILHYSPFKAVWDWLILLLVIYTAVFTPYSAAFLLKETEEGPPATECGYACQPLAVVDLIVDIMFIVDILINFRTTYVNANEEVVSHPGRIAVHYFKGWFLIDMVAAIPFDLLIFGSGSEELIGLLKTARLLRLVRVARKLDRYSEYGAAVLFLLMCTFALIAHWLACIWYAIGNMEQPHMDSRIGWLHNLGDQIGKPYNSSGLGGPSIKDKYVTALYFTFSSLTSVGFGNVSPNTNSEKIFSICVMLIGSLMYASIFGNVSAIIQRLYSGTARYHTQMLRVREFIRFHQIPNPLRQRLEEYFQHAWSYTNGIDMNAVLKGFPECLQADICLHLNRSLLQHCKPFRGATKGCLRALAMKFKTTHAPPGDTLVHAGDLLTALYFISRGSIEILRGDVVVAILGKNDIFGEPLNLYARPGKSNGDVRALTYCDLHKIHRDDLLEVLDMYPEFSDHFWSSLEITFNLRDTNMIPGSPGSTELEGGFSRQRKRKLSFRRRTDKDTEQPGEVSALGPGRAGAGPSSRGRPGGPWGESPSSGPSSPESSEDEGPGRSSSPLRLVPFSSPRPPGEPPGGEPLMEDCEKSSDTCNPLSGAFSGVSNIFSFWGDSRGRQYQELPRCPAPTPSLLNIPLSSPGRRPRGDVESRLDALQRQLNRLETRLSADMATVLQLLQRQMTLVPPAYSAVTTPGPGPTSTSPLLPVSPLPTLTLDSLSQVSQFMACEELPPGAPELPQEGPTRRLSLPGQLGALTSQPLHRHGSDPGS
Sequence of KDR kinase (P35968 20-1356): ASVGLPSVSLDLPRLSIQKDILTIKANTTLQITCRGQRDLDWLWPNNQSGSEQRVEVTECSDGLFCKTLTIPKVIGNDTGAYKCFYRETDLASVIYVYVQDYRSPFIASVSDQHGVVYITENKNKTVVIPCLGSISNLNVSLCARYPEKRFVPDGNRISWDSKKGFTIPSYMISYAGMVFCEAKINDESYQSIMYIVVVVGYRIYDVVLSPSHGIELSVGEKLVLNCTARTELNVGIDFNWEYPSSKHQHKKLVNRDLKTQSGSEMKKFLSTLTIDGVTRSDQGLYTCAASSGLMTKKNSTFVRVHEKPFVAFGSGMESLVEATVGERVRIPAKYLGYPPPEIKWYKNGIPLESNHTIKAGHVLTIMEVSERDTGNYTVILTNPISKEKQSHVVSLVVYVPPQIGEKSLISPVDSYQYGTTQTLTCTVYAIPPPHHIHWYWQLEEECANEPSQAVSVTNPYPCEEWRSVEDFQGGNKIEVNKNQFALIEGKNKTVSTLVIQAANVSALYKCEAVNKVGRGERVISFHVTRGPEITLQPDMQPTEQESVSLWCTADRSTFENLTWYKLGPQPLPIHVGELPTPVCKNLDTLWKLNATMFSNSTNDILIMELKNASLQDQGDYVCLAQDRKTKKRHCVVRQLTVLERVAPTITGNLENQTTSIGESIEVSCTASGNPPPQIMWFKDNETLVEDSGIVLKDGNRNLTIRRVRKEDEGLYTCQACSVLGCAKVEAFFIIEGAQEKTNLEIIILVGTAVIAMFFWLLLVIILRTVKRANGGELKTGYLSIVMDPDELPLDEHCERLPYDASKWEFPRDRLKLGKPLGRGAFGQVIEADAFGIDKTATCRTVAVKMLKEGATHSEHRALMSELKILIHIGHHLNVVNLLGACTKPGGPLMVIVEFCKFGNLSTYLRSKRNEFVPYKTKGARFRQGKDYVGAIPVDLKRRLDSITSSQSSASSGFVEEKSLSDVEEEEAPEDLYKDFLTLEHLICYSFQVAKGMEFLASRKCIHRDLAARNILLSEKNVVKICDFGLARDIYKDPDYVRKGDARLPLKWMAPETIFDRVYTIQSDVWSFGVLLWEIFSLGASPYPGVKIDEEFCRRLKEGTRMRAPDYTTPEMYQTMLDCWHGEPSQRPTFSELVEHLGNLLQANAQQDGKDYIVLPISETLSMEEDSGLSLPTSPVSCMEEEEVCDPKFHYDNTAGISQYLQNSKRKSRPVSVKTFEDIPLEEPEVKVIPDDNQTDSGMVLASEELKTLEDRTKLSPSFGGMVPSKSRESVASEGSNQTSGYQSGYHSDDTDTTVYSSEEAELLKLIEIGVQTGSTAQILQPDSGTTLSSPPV

By pIC50 is commonly meant the negative decadic logarithm of the IC50, by convention in mol/L. `C=C1[C@@H](O)C[C@@H](c2ccncc2NC(=O)c2nc(-c3ccccc3)cnc2N)OC12CC2` [Example 5, 3-amino-N-(4-((5S,7S)-7-hydroxy-8-methylene-4-oxaspiro[2.5]octan-5-yl)pyridin-3-yl)-6-phenylpyrazine-2-carboxamide]: the pIC50 against cABLT315 kinase was 7.15; on hERG (dofetilide displacement), less than 4.52; against KDR kinase, 8.00.

Regarding `Nc1ncc(-c2ccccc2)nc1C(=O)Nc1cnccc1[C@@H]1C[C@H](O)[C@]2(O)CCCC[C@@H]2O1` [Example 176, 3-amino-N-(4-((2S,4S,4aR,8aS)-4,4a-dihydroxyoctahydro-2H-chromen-2-yl)pyridin-3-yl)-6-phenylpyrazine-2-carboxamide], the pIC50 is 5.10 on FGFR3 kinase, 5.13 on cABLT315 kinase and less than 4.52 on hERG (dofetilide displacement).

As to `O=C(Nc1cnccc1[C@H]1C[C@@H](O)[C@@]2(O)CCCC[C@H]2O1)c1c[nH]cc(-c2ccccc2)c1=O` [Example 178, N-(4-((2R,4R,4aS,8aR)-4,4a-dihydroxyoctahydro-2H-chromen-2-yl)pyridin-3-yl)-4-oxo-5-phenyl-1,4-dihydropyridine-3-carboxamide], the values for the pIC50 at FGFR3 kinase, at cABLT315 kinase and on hERG (dofetilide displacement) were less than 5.00, less than 5.00 and less than 4.52, respectively.

Regarding `Nc1ncc(-c2ccccc2)nc1C(=O)Nc1cnccc1[C@@H]1C[C@H](O)[C@]2(O)CCC[C@@H]2O1` [Example 186, 3-amino-N-(4-((2S,4S,4aR,7aS)-4,4a-dihydroxyoctahydrocyclopenta[b]pyran-2-yl)pyridin-3-yl)-6-phenylpyrazine-2-carboxamide], the pIC50 on FGFR3 kinase was 5.43; on cABLT315 kinase, 5.00; at hERG (dofetilide displacement), less than 4.52.

Consider `Nc1ncc(-c2ccccc2)nc1C(=O)Nc1cnccc1[C@H]1C[C@@H](O)[C@@]2(O)CCC[C@H]2O1` [Example 195, 3-amino-N-(4-((2R,4R,4aS,7aR)-4,4a-dihydroxyoctahydrocyclopenta[b]pyran-2-yl)pyridin-3-yl)-6-phenylpyrazine-2-carboxamide], for which the values for the pIC50 against FGFR3 kinase, at cABLT315 kinase and on hERG (dofetilide displacement) were 7.96, 7.05 and less than 4.52, respectively.

For `O=C1CC[C@H]2O[C@@H](c3ccncc3NC(=O)c3ccc(F)c(-c4c(F)cccc4F)n3)C[C@@H](O)[C@@H]2N1` [Example 196, 6-(2,6-difluorophenyl)-5-fluoro-N-(4-((2R,4R,4aS,8aR)-4-hydroxy-6-oxooctahydro-2H-pyrano[3,2-b]pyridin-2-yl)pyridin-3-yl)picolinamide], the values for the pIC50 against FGFR3 kinase, at cABLT315 kinase and on hERG (dofetilide displacement) were less than 5.00, less than 5.00 and less than 4.52, respectively.

As to `N[C@@H]1C[C@H](c2ccncc2NC(=O)c2ccc(F)c(-c3c(F)cccc3F)n2)O[C@@H]2CCC[C@]12O` [Example 210, N-(4-((2R,4R,4aS,7aR)-4-amino-4a-hydroxyoctahydrocyclopenta[b]pyran-2-yl)pyridin-3-yl)-6-(2,6-difluorophenyl)-5-fluoropicolinamide], the pIC50 at FGFR3 kinase was less than 5.00; against cABLT315 kinase, less than 5.00; on hERG (dofetilide displacement) it was 5.00.

As to `Nc1cnc(-c2c(F)cccc2F)nc1C(=O)Nc1cnccc1[C@H]1C[C@@H](N)[C@@]2(O)CCC[C@H]2O1` [Example 213, 5-amino-N-(4-((2R,4R,4aS,7aR)-4-amino-4a-hydroxyoctahydrocyclopenta[b]pyran-2-yl)pyridin-3-yl)-2-(2,6-difluorophenyl)pyrimidine-4-carboxamide], the pIC50 was less than 5.00 against FGFR3 kinase, less than 5.00 against cABLT315 kinase and less than 4.52 on hERG (dofetilide displacement).

As to `C[C@H]1O[C@@H](c2ccncc2NC(=O)c2ccc(F)c(-c3c(F)cccc3F)n2)C[C@@H](N)[C@]1(C)O` [Example 219, N-(4-((2R,4R,5S,6R)-4-amino-5-hydroxy-5,6-dimethyltetrahydro-2H-pyran-2-yl)pyridin-3-yl)-6-(2,6-difluorophenyl)-5-fluoropicolinamide], the negative logarithm of the IC50 (pIC50) was less than 5.00 against FGFR3 kinase; less than 5.00 on cABLT315 kinase (Caliper assay); 4.80 at hERG (hERG binding, dofetilide).

As to `N[C@@H]1C[C@H](c2ccncc2NC(=O)c2ccc(F)c(-c3c(F)cccc3F)n2)O[C@@H]2CCC[C@H]12` [Example 224, N-(4-((2R,4R,4aR,7aR)-4-aminooctahydrocyclopenta[b]pyran-2-yl)pyridin-3-yl)-6-(2,6-difluorophenyl)-5-fluoropicolinamide], the negative-log IC50 (pIC50) was less than 5.00 on FGFR3 kinase; less than 5.00 against cABLT315 kinase (Caliper assay); 5.70 at hERG (hERG binding, dofetilide).

As to `N[C@H]1C[C@@H](c2ccncc2NC(=O)c2csc(-c3c(F)cccc3F)n2)O[C@H]2CCC[C@H]21` [Example 230, N-(4-((2S,4S,4aS,7aS)-4-aminooctahydrocyclopenta[b]pyran-2-yl)pyridin-3-yl)-2-(2,6-difluorophenyl)thiazole-4-carboxamide], the pIC50 against FGFR3 kinase was less than 5.00; against cABLT315 kinase (Caliper assay) it was less than 5.00; at hERG (hERG binding, dofetilide) it was 5.40.

Turning to `CC[C@]1(O)[C@H](N)C[C@H](c2ccncc2NC(=O)c2ccc(F)c(-c3c(F)cccc3F)n2)O[C@@H]1C` [Example 232, N-(4-((2R,4R,5S,6R)-4-amino-5-ethyl-5-hydroxy-6-methyltetrahydro-2H-pyran-2-yl)pyridin-3-yl)-6-(2,6-difluorophenyl)-5-fluoropicolinamide], the pIC50 at FGFR3 kinase is less than 5.00; against cABLT315 kinase (Caliper assay), less than 5.00; on hERG (hERG binding, dofetilide), 5.30.

For the compound `Nc1cc(F)c(-c2c(F)cccc2F)nc1C(=O)Nc1cnccc1[C@H]1C[C@@H](N)[C@@]2(O)CCCC[C@H]2O1` [Example 238, 3-amino-N-(4-((2R,4R,4aS,8aR)-4-amino-4a-hydroxyoctahydro-2H-chromen-2-yl)pyridin-3-yl)-6-(2,6-difluorophenyl)-5-fluoropicolinamide], the pIC50 is less than 5.00 at FGFR3 kinase; less than 5.00 against cABLT315 kinase (Caliper assay); 5.40 at hERG (hERG binding, dofetilide).

`COc1cc(F)c(-c2nc(C(=O)Nc3cnccc3[C@H]3C[C@@H](N)[C@](C)(O)[C@@H](C)O3)ccc2F)c(F)c1` [Example 242, N-(4-((2R,4R,5S,6R)-4-amino-5-hydroxy-5,6-dimethyltetrahydro-2H-pyran-2-yl)pyridin-3-yl)-6-(2,6-difluoro-4-methoxyphenyl)-5-fluoropicolinamide]: the pIC50 was less than 5.00 against FGFR3 kinase; less than 5.00 against cABLT315 kinase (Caliper assay); 5.22 on hERG (hERG binding, dofetilide).

The values above are taken from US20130109682A1, “CYCLIC ETHER COMPOUNDS USEFUL AS KINASE INHIBITORS” (NOVARTIS AG, priority 2010, published 2013).
